Measurements as given in patent US6335354B2, “Aminopyridines and methods of using thereof” (CoCensys Inc., priority 2000, dated 2002).

Key:
[1] = biological target: T1, hSkM1 isoform of Na+ channels (Homo sapiens, UniProt P35499); assay: Electrophysiological assay, whole-cell patch-clamp recordings of voltage-sensitive Na+ currents; type: cell-based; conditions: HEK-293 cells stably expressing hSkM1
T1 construct: expressed in transfected cells
Description: Cell preparalion. HEK-293 cells stably expressing the hSkM1 isoform of Na^+ channels (generous gift from Dr. A. L. George, Vanderbilt University Medical School) were cultured using standard techniques, as described previously (Verdoorn, T. A, et al., Neuron 4:919-928 (1990)). For electrophysiology, cells were plated onto 35 mm Petri dishes (pre-coated with poly-D-lysine) at a density of 1:40 on the day of re-seeding from confluent cultures. Our experience has been that cells are suitable for recordings for 2-3 days after plating.
Patch-clamp recordings of voltage-sensitive Na^+ currenis. Whole-cell voltage-clamp recordings were made using conventional patch-clamp techniques (Hamill et al, Pfluegers Arch. 391:85-100 (1981)) with an Axopatch 200A amplifier (Axon Instruments, Foster City, Calif.). Recordings were made within 2-3 hours after neuron dissociation. The recording chamber was continuously superfused with the external solution (150 mM NaCl, 5.4 mM KCl, 1.8 mM CaCl2, 1 mM MgCl2, 10 mM HEPES, 10 mM glucose, pH 7.4 (NaOH)) at a speed of about 1 mL/min. Recording pipettes were pulled from thick-walled capillaries (WPI, Sarasota, Fla.) and fire-polished. The pipette resistances ranged from 1 to 3 MΩ when the pipettes were filled with internal solution containing (in mM): 110 CsF, 10 NaCl, 5 MgCl2, 11 EGTA, 10 HEPES, pH adjusted to 7.4 with CsOH. Osmolality was set with a difference of 15-20 mmol/kg between external and internal solutions (lower inside the cell). Drugs and intervening wash-outs were applied through a linear array of flow pipes (Drummond Microcaps, 2 μL, 64-mm length). […] Currents were recorded at room temperature (22-25° C.), filtered at 5 kHz with an active 8-pole Bessel filter (Frequency Devices, Haverhill, Mass.), digitized at 10-50 μs intervals, and stored using Digidata 1200 analog/digital interface with Pclamp6/Clampex software (Axon Instruments). […] The inhibitory potency of drugs was assessed by measuring reductions in the peak amplitude of Na^+ currents induced by increasing concentrations of compounds tested. […]

[2] = system: maximal electroshock-induced seizures (MES); assay: maximum electroshock seizure test (MES); type: in vivo; conditions: Mus musculus, iv; mice, injected i.v. 15 minutes before the test procedure; read-out: ED50 (the dose protecting 50% of animals), protection against MES
Source text: The compounds of the present invention may be tested for in vivo anticonvulsant activity after i.v., p.o. or i.p. injection using a number of anticonvulsant tests in mice, including the maximum electroshock seizure test (MES). Maximum electroshock seizures were induced in male NSA mice weighing between 15-20 g and male Sprague-Dawley rats weighing between 200-225 g by application of current (50 mA, 60 pulses/sec, 0.8 msec pulse width, 1 sec duration, D.C., mice; 99 mA. 125 pulses/sec, 0.8 msec pulse width, 2 sec duration, D.C., rats) using a Ugo Basile FCT device (Model 7801). Mice were restrained by gripping the loose skin on their dorsal surface and saline-coated corneal electrodes were held lightly against the two corneae. Rats were allowed free movement on the bench top and ear-clip electrodes were used. […] A tonic seizure was defined as a hindlimb extension in excess of 90 degrees from the plane of the body. Results were treated in a quantal manner. The ability of N^3-[4-(4-fluorophenoxy)benzyl]pyridine-2,3-diamine to block maximal electroshock-iniduced seizures (MES) was determined according to the method above. N^3-[4-(4-Fluorophenoxy)benzyl]pyridine-2,3-diamine was injected i.v. to mice 15 minutes before the test procedure.

T1 sequence (P35499 whole entry, canonical isoform): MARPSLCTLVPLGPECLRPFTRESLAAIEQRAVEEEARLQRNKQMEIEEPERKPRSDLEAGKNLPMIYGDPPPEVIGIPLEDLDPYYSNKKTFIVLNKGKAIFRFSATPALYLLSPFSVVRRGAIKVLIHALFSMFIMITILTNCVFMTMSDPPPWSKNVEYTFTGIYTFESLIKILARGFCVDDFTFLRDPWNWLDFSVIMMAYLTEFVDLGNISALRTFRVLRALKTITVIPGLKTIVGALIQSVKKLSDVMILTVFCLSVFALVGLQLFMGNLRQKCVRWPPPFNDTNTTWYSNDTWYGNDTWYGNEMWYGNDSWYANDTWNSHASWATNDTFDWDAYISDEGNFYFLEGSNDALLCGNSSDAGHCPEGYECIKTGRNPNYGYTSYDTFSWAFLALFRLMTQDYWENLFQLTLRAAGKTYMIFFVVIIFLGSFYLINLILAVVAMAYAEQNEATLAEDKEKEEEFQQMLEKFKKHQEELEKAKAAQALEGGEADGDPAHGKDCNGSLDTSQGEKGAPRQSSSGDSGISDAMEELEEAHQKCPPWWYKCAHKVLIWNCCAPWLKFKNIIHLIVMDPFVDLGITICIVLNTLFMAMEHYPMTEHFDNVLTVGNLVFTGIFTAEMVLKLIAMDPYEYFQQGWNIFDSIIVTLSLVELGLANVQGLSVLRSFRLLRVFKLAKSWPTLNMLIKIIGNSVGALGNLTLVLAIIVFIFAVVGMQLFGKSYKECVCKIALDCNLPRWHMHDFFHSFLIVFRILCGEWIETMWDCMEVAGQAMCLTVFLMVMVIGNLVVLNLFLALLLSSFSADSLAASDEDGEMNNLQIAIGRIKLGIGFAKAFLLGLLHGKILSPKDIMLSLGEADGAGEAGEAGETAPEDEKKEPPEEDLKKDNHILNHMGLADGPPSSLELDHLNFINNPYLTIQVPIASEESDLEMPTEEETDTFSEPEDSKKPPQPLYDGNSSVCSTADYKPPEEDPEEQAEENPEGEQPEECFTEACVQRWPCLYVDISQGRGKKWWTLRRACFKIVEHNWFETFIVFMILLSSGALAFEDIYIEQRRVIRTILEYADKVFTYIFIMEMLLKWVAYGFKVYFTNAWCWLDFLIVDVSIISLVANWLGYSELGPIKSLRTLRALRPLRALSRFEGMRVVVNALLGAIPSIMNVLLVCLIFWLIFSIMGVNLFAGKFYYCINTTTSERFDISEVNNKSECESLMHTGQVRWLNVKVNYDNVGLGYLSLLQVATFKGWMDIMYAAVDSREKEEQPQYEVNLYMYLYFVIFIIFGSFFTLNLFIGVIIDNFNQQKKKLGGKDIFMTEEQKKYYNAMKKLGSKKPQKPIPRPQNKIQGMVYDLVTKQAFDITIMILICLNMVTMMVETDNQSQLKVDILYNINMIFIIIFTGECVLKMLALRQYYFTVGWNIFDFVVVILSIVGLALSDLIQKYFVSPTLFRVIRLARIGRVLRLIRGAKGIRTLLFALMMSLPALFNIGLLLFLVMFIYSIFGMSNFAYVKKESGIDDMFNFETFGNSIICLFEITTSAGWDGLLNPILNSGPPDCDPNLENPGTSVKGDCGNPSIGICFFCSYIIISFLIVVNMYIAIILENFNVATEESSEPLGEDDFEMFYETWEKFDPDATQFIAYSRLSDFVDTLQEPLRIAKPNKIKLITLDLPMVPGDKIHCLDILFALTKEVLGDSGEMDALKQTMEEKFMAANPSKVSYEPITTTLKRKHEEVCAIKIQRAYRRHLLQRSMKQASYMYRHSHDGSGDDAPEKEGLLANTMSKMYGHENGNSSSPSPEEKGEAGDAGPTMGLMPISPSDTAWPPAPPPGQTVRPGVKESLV

| inhibition of voltage-gated sodium currents [1] | Ki ([1]; inactivated state, read-out: apparent antagonist dissociation constant Ki (the concentration of a compound that produces half maximal inhibition) for inactivated sodium channels) [nM] | potency towards Na+ channels in their resting states ([1]; resting state) | Compound | ED50 [2] [mg/kg] |
| --- | --- | --- | --- | --- |
| dose-dependent inhibition | 60 | weak potency | Nc1ncccc1NCc1ccc(Oc2ccc(F)cc2)cc1 [N^3-[4-(4-Fluorophenoxy)benzyl]pyridine-2,3-diamine] |  |
|  |  |  | Nc1ncccc1NCc1ccc(OCc2cccc(F)c2)cc1 [N^3-[4-(3-Fluorobenzyloxy)benzyl]pyridine-2,3-diamine] | 2.9 |
